The source of these data is US20070043036A1, “2-Pyridone derivatives as neutrophil elastase inhibitors and their use” (priority 2003, published 2007).

The target of this assay is T1, Human Neutrophil Elastase (HNE) (Homo sapiens, UniProt P08246).
T1 construct: Human Neutrophil Elastase (HNE) purified from serum; purchased Calbiochem 324681; host or cells: natural source; printed as 'purified from serum'
T1 sequence (P08246 30-247 limits assumed): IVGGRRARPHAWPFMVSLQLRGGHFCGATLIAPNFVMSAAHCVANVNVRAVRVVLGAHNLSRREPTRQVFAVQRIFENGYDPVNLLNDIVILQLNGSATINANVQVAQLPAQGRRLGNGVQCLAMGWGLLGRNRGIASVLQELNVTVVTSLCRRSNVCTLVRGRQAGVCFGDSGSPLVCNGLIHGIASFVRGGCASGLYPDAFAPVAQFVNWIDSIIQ
Nature of the assay: Human Neutrophil Elastase Quenched-FRET Assay. Type of assay: biochemical. The settings on record: HNE purified from serum; substrate MeOSuc-AAPV-AMC; 15 min pre-incubation, 30 min incubation at room temperature; read-out: Inhibition of Human Neutrophil Elastase IC50. On the procedure:
Human Neutrophil Elastase Quenched-FRET Assay
The assay uses Human Neutrophil Elastase (HNE) purified from serum (Calbiochem art. 324681; Ref. Baugh, R. J. et al., 1976, Biochemistry. 15, 836-841). HNE was stored in as 50 mM NaOAc, 200 mM NaCl, pH 5.5 with added 30% glycerol at −20° C. The protease substrate used was Elastase Substrate V Fluorogenic, MeOSuc-AAPV-AMC (Calbiochem art. 324740; Ref. Castillo, M. J. et al., 1979, Anal. Biochem. 99, 53-64). The substrate was stored in DMSO at −20° C. The assay additions were as follows: Test compounds and controls were added to black 96-well flat-bottom plates (Greiner 655076), 1 μL in 100% DMSO, followed by 30 μL HNE in assay buffer with 0.01% TritonX-100. The assay buffer constitution was: 100 mM Tris (pH 7.5) and 500 mM NaCl. The enzyme and the compounds were incubated at room temperature for 15 minutes. Then 30 μl substrate in assay buffer was added. The assay was stopped after 30 minutes incubation at room temperature by adding 60 μl stop solution (140 mM acetic acid, 200 mM sodium monochloroacetate, 60 mM sodium acetate, pH 4.3). Fluorescence was measured on a Wallac 1420 Victor 2 instrument at settings: Excitation 380 nm, Emission 460 nm. IC50 values were determined using Xlfit curve fitting using model 205.
As for `Cc1c(CCc2cccnc2)cc(C(=O)NCc2ccc(S(C)(=O)=O)cc2)c(=O)n1-c1cccc(C(F)(F)F)c1` [Example 8, 6-Methyl-N-[4-(methylsulfonyl)benzyl]-2-oxo-5-(2-pyridin-3-ylethyl)-1-[3-(trifluoromethyl)phenyl]-1,2-dihydropyridine-3-carboxamide], the half-inhibitory concentration (IC50) amounted to 0.083 µM.

Take `CCCN(C)C(=O)c1cc(C(=O)NCc2ccc(S(C)(=O)=O)cc2)c(=O)n(-c2cccc(C(F)(F)F)c2)c1C` [Example 16, 6-Methyl-2-oxo-1-(3-trifluoromethyl-phenyl)-1,2-dihydro-pyridine-3,5-dicarboxylic acid 3-(4-methanesulfonyl-benzylamide)5-(methyl-propyl-amide)]: the IC50 was found to be 0.048 µM.

As for `Cc1c(C(=O)N2CCC[C@@H]2CO)cc(C(=O)NCc2ccc(S(C)(=O)=O)cc2)c(=O)n1-c1cccc(C(F)(F)F)c1` [Example 19, 5-((2R)-2-Hydroxymethyl-pyrrolidine-1-carbonyl)-6-methyl-2-oxo-1-(3-trifluoromethyl-phenyl)-1,2-dihydro-pyridine-3-carboxylic acid 3-(4-methanesulfonyl-benzylamide)], the IC50 stood at 0.099 µM.

With `Cc1c(CNCC2CC2)cc(C(=O)NCc2ccc(S(C)(=O)=O)cc2)c(=O)n1-c1cccc(C(F)(F)F)c1` [Example 58, 5-{[(Cyclopropylmethyl)amino]methyl}-6-methyl-N-[4-(methylsulfonyl)benzyl]-2-oxo-1-[3-(trifluoromethyl)phenyl]-1,2-dihydropyridine-3-carboxamide], the IC50 was 0.051 µM.

For the molecule `Cc1c(OCCO)cc(C(=O)NCc2ccc(S(C)(=O)=O)cc2)c(=O)n1-c1cccc(C(F)(F)F)c1` [Example 66, 5-(2-Hydroxyethoxy)-6-methyl-N-[4-(methylsulfonyl)benzyl]-2-oxo-1-[3-(trifluoromethyl)phenyl]-1,2-dihydropyridine-3-carboxamide], the concentration for half-maximal inhibition (IC50) is 0.022 µM.

What is called IC50 is the concentration at which inhibition is half-maximal.
